Data published in US6251882A, “Alkyl ketones as potent anti-cancer agents” (Parker Hughes Institute, priority 1999, dated 2001).

Key:
U373 glioblastoma cells = assay: Adhesion assay to ECM proteins, U373; type: cell-based, human; settings: laminin, fibronectin or type IV collagen; 16 hours (FIG. 7)
Experimental: (§1) A human brain tumor cell line derived from an adult patient with glioblastoma, U-373 MG (Cat. #HTB-17) and MDA-MB-231 breast cancer cells (Cat. #HTB-26) were obtained from American Type Culture Collection (ATCC, Manassas, Va.) and maintained in liquid culture using DMEM supplemented with 10% fetal bovine serum and antibiotics. Fibroblast conditioned medium was used as a source of chemoattractant in vitro invasion assays. Conditioned medium was prepared as described previously (Albini, et al., 1987, Cancer Res., 47:3239-3245). […]
(§2) In adhesion assays, cells were centrifuged, washed twice with serum-free DMEM, counted and resuspended in serum-free DMEM to a final concentration of 2.5×10^5 cells/ml. […] The adherent fraction was quantitated using MTT (3-[4,5-dimethylthiazol-2-yl]-2,5-diphenyltetrazolium bromide) assays. […] The absorbance of each well was measured in a microplate reader (Labsystems) at […] and a reference wavelength of 690 nm. […] The adherent fraction of cells treated with HI-131 was compared to the DMSO-treated control cells and the percent adhesion relative to the control was determined.
(§3) Each treatment condition was evaluated in duplicate in 3 independent experiments. The IC50 values were calculated by non-linear regression analysis.

U-373 (glioblastoma) = assay: MTT cytotoxicity assay, U-373; type: cell-based; settings: Homo sapiens, U373 MG, 24-36 hours at 37° C., 0.1 to 250 μM
Experimental: (§4) Cytotoxicity of various compounds against tumor cells was performed using the MTT (3-[4,5-[…]]-2,5-diphenyl tetrazolium bromide) assay (Boehringer Mannheim Corp., Indianapolis, Ind.). Unless otherwise specified, all cell lines were obtained from the American Type Culture Collection (ATCC). Briefly, exponentially growing cells were seeded into a 96-well plate at a density of 2.5×10^4 cells/well and incubated for 36 hours at 37° C. prior to drug exposure. On the day of treatment, culture medium was carefully aspirated from the wells and replaced with fresh medium containing the indicated compound at concentrations ranging from 0.1 to 250 μM. Triplicate wells were used for each treatment.
(§5) Human leukemic cell lines (NALM-6, MOLT-3) glioblastoma cells (U373) and human breast tumor cell lines (BT20 and MDA-MB-231) were obtained from the American Type Culture Collection and maintained as a continuous cell line in Dulbecco's modified Eagles's medium supplemented with 10% fetal bovine serum and antibiotics.
(§6) The cells were incubated with the various compounds for 24-36 hours at 37° C. in a humidified 5% CO2 atmosphere. To each well, 10 μl of MTT (0.5 mg/ml final concentration) was added and the plates were incubated at 37° C. for 4 hours to allow MTT to form formazan crystals by reacting with metabolically active cells. The formazan crystals were solubilized overnight at 37° C. in a solution containing 10% SDS in 0.01 M HCl. The absorbence of each well was measured in a microplate reader (Labsystems) at 540 nm and a reference wavelength of […]. To translate the OD540 values into the number of live cells in each well, the OD540 values were compared to those on standard OD540 --versus--cell number curves generated for each cell line. The percent survival was calculated using the formula: [formula]
(§7) The IC50 values were calculated by non-linear regression analysis and are shown below in Tables 1-6.

BT-20 (breast cancer) = assay: MTT cytotoxicity assay, BT-20; type: cell-based; settings: Homo sapiens, 24-36 hours at 37° C., 0.1 to 250 μM
Experimental: as §4, §5, §6, §7

primary leukemic cells = assay: Apoptosis induction, primary leukemic cells (in situ TUNNEL, confocal microscopy); type: cell-based, human
Experimental: (§8) The ability of HI-131 to induce apoptosis cells was evaluated in human leukemia in NALM-6 cells and primary leukemic cells from 2 patients. Cells were treated with 50 μM compound HI-131 for 24 hours. After incubation, the cells were harvested and analyzed for apoptosis by in situ TUNNEL analysis and confocal laser scanning microscopy as described in Sudbeck et al., 1999, Clin Cancer Res., 5:1589-82. Controls were treated with vehicle alone.
(§9) Induction of apoptosis was further evaluated in primary leukemic cells and established NALM-6 and MOLT-3 cell lines following treatment with HI-131.

[1] = test system: MDA-MB-231 breast cancer cells; assay: Adhesion assay to ECM proteins, MDA-MB-231; type: cell-based, human; settings: laminin, fibronectin or type IV collagen; 16 hours (FIG. 6)
Experimental: as §1, §2, §3

NALM-6 cells = assay: Apoptosis induction, NALM-6 cells (in situ TUNNEL, confocal microscopy); type: cell-based, human
Experimental: as §8, §9

MOLT-3 cells = assay: Apoptosis induction, MOLT-3 cells; type: cell-based; settings: Homo sapiens, MOLT-3, 24 h; vs vehicle control (FIG. 3)
Experimental: as §8, §9

`CCCCCCCCCCCCSC[C@H](NC(C)=O)C(=O)CCl` [HI-131, N-Ac-S-dodecyl-Cys chloromethyl ketone] was tested, and the “loss of adhesion, U373” value (U373 glioblastoma cells) was “dose-dependent loss of adhesion”, the IC50 (U-373 (glioblastoma)) was 35.1 µM and the IC50 (BT-20 (breast cancer)) was 10 µM. The “apoptosis induction (TUNNEL/confocal), primary leukemic cells” value (primary leukemic cells; 50 μM, 24 hours, 2 patients) was “greatly induced apoptosis”, the fold induction at 50 µM (primary leukemic cells; Homo sapiens, 24 h, typical, vs vehicle control (FIG. 3)) was about 4 and the “rate of apoptosis, primary leukemic cell samples” value (primary leukemic cells; all but one of the samples (FIG. 3)) was “increased dramatically”. For the same compound, the “loss of adhesion, MDA-MB-231” value [1] was “dose-dependent loss of adhesion”, the “apoptosis induction (TUNNEL/confocal), NALM-6” value (NALM-6 cells; 50 μM, 24 hours) was “greatly induced apoptosis” and the fold induction at 50 µM (NALM-6 cells; Homo sapiens, NALM-6, 24 h, vs vehicle control (FIG. 3)) was about 20. For the same compound, the fold induction at 50 µM (MOLT-3 cells) was about 20.
